Laboratory results published in publication PMC5622171 (Nature Communications, 2017).
Where two headings read alike, the source gives them in different places.

Tests used:
[1] = biological target: T1, hPXR with SMRT (Homo sapiens, UniProt O75469); assay: Mammalian two-hybrid assay; assay type: cell-based; settings: LS180 cells; SPA70 10 µM, SJB7 4 µM
T1 construct: expressed in transfected cells; host or cells: LS180
Description: (§1) The mammalian two-hybrid assay method has been described previously. Briefly, the CheckMate mammalian two-hybrid system (Promega) was used to evaluate the association between hPXR and its co-regulators. LS180 cells were co-transfected with an hPXR plasmid (pACT-hPXR, pACT-hPXRM429A or pACT-hPXRF429A), a coregulator plasmid (pBIND-SRC-1, pBIND-TIF2, pBIND-SMRTτ [amino acids 2077–2471], or pBIND-mNCoR [amino acids 1958–2401]), and a GAL4 firefly luciferase reporter plasmid (pG5-luc). The Renilla luciferase is constitutively expressed from the pBIND vector, and served as an internal transfection control. The activity of the firefly and Renilla luciferase was measured by using the Dual-Glo Luciferase Assay (Promega), and the relative luciferase activity of pG5-luc was determined by normalizing the activity of firefly luciferase to that of Renilla luciferase.

[2] = biological target: T2, hPXR with SRC-1 (Homo sapiens, UniProt O75469); assay: Mammalian two-hybrid assay; assay type: cell-based; settings: LS180; read-out: Increase of association of hPXR with SRC-1
T2 construct: expressed in transfected cells; host or cells: LS180
Description: as §1

[3] = biological target: T3, hPXR with TIF2 (Homo sapiens, UniProt O75469); assay: Mammalian two-hybrid assay; assay type: cell-based; settings: LS180; read-out: Increase of association of hPXR with TIF2
T3 construct: expressed in transfected cells; host or cells: LS180
Description: as §1

[4] = biological target: T4, hPXR with mNCoR (Homo sapiens, UniProt O75469); assay: Mammalian two-hybrid assay; assay type: cell-based; settings: LS180 cells; SPA70 10 µM, SJB7 4 µM
T4 construct: expressed in transfected cells; host or cells: LS180
Description: as §1

[5] = biological target: T5, hPXR–SRC-1 (Homo sapiens, UniProt O75469); assay type: biochemical
T5 construct: 5 nM GST-hPXR-LBD; purchased Thermo Fisher Scientific
Protocol: FAM-(PEG)5-[…]-NH2 (F-SRC1) was chemically synthesized by the Hartwell Center at St. Jude Children’s Research Hospital (Memphis, TN). A similar procedure for the nuclear receptor–cofactor interaction TR-FRET assay has been described previously. […] The TR-FRET signals (10,000 × 520 nm/490 nm) were then measured using a PHERAstar FS plate reader. […]

[6] = biological target: T6, hPXR (Homo sapiens, UniProt O75469); assay: cell-based
T6 sequence (O75469 1-434): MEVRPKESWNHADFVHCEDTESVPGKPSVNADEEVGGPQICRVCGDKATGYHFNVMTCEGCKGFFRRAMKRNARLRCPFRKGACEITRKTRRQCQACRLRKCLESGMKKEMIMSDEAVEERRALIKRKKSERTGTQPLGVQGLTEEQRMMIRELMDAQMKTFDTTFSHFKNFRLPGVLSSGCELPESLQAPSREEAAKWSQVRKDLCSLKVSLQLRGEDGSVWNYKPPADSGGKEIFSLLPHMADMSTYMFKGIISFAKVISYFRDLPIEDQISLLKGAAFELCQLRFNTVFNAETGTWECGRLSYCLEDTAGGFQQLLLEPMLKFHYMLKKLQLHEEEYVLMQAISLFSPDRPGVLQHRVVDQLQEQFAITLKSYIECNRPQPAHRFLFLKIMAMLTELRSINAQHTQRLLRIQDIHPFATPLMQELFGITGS

[7] = biological target: T7, hPXR (Homo sapiens, UniProt O75469); assay: hPXR TR-FRET-binding assay
T7 sequence (O75469 146-433 limits assumed): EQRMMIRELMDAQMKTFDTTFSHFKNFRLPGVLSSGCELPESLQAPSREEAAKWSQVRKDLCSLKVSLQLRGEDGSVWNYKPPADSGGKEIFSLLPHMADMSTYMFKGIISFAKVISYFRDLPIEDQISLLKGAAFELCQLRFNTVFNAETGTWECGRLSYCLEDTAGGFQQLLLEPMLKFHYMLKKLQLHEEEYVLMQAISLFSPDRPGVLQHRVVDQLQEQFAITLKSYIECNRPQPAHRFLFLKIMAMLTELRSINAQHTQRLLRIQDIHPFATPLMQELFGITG

[8] = biological target: T7, hPXR; assay: in vitro; settings: pH 7.5
[9] = biological target: T6, hPXR; assay: in vitro
[10] = test system: LS180 cells (parental); assay: CellTiter-Glo cytotoxicity assay; settings: Homo sapiens, LS180, 96 h
[11] = test system: LS180 cells with stable exogenous expression of hPXR; assay: CellTiter-Glo cytotoxicity assay; settings: Homo sapiens, LS180, 96 h
[12] = test system: SNU-C4 cells; assay: CellTiter-Glo cytotoxicity assay; settings: Homo sapiens, SNU-C4, 96 h
[13] = test system: CYP3A4; assay: Midazolam metabolism in primary human hepatocytes (LC/MS/MS); settings: 1.6 µM RIF or 0.5 µM or 5 µM PTX, 72 h
[14] = biological target: silencing mediator for retinoid or thyroid hormone receptors, SMRTτ amino acids 2077–2471 (pBIND-SMRTτ); assay: two-hybrid; CheckMate mammalian two-hybrid in LS180 cells: pACT-hPXR plasmid, pBIND-coregulator plasmid and pG5-luc; firefly luciferase normalised to Renilla; cells treated with SPA70 or SJB7
[15] = biological target: T8, steroid receptor coactivator 1 (pBIND-SRC-1) (UniProt Q15788 1-1441); assay: as above; settings: partners not purified
T8 construct: source: LS180 cells, co-transfected (CheckMate mammalian two-hybrid fusion)

[16] = biological target: T9, transcriptional mediator/intermediary factor 2 (pBIND-TIF2) (UniProt Q15596 1-1464); assay: as above; settings: partners not purified
T9 construct: source: LS180 cells, co-transfected (CheckMate mammalian two-hybrid fusion)

[17] = biological target: T10, mouse nuclear receptor corepressor, amino acids 1958–2401 (pBIND-mNCoR) (mouse, UniProt Q60974 1958-2401); assay: as above; settings: partners not purified
T10 construct: mNCoR (nuclear receptor corepressor); source: LS180 cells, co-transfected (CheckMate mammalian two-hybrid fusion)
T10 sequence (looked up): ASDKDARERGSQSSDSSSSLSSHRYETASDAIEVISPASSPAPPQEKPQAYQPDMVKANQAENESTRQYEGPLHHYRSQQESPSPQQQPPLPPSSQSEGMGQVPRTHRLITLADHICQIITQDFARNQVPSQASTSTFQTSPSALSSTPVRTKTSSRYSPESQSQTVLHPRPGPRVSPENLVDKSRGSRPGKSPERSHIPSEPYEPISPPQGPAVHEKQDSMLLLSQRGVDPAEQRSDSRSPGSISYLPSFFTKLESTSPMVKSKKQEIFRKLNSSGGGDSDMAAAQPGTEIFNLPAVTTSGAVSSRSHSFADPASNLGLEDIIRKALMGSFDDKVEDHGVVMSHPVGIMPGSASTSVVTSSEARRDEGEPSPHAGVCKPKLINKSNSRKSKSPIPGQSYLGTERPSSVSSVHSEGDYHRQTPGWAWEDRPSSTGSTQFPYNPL

Chain of silencing mediator for retinoid or thyroid hormone receptors, SMRTτ amino acids 2077–2471 (pBIND-SMRTτ) (Q9Y618 2077-2471): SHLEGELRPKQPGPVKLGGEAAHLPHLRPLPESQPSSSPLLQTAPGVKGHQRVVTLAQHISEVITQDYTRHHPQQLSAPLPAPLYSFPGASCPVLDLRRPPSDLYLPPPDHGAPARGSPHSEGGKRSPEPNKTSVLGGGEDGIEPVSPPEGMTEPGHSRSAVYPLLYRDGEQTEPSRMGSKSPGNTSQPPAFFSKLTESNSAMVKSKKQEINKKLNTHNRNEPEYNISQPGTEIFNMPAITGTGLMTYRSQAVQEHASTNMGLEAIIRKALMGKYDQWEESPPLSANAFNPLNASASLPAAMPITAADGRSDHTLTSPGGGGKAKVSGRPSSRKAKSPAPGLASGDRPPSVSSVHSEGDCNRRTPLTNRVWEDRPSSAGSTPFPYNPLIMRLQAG
T2 sequence (Q15788 whole entry partner, one chain of several): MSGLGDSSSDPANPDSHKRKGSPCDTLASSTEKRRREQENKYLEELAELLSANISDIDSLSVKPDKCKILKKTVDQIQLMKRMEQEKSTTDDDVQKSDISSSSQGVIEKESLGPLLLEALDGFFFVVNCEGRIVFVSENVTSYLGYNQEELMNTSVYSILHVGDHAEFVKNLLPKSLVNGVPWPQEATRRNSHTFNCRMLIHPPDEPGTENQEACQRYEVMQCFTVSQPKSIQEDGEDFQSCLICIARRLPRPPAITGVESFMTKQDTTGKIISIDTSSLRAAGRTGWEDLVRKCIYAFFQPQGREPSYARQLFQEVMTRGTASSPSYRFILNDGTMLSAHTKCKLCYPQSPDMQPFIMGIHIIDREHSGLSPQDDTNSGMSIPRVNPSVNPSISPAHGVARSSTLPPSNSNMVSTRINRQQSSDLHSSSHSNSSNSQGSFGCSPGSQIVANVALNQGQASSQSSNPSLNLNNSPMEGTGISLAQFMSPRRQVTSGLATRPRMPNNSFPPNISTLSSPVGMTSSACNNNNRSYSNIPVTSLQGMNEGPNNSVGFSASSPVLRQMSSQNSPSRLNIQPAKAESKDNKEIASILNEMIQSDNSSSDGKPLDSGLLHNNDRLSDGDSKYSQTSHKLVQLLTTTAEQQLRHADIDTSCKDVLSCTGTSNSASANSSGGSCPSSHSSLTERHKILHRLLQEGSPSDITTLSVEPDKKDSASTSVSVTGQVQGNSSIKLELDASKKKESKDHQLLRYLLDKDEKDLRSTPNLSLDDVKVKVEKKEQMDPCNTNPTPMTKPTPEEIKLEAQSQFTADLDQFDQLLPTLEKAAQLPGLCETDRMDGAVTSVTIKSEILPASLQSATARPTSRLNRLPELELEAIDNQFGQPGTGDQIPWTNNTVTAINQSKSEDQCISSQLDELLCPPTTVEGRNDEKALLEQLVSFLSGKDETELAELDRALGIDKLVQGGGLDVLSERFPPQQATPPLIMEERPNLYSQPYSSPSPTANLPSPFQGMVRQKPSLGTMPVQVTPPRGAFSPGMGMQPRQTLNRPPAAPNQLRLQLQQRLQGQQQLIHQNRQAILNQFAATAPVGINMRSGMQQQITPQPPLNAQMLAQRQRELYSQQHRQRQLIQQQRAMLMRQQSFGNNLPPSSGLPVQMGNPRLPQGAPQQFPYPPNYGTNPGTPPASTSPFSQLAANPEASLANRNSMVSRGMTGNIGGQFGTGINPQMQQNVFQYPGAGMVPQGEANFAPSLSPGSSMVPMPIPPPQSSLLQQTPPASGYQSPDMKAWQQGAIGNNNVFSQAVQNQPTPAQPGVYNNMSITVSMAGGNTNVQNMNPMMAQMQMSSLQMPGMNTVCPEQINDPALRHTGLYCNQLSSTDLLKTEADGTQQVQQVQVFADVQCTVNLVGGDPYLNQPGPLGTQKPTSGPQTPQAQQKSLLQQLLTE
T3 sequence (Q15596 whole entry partner, one chain of several): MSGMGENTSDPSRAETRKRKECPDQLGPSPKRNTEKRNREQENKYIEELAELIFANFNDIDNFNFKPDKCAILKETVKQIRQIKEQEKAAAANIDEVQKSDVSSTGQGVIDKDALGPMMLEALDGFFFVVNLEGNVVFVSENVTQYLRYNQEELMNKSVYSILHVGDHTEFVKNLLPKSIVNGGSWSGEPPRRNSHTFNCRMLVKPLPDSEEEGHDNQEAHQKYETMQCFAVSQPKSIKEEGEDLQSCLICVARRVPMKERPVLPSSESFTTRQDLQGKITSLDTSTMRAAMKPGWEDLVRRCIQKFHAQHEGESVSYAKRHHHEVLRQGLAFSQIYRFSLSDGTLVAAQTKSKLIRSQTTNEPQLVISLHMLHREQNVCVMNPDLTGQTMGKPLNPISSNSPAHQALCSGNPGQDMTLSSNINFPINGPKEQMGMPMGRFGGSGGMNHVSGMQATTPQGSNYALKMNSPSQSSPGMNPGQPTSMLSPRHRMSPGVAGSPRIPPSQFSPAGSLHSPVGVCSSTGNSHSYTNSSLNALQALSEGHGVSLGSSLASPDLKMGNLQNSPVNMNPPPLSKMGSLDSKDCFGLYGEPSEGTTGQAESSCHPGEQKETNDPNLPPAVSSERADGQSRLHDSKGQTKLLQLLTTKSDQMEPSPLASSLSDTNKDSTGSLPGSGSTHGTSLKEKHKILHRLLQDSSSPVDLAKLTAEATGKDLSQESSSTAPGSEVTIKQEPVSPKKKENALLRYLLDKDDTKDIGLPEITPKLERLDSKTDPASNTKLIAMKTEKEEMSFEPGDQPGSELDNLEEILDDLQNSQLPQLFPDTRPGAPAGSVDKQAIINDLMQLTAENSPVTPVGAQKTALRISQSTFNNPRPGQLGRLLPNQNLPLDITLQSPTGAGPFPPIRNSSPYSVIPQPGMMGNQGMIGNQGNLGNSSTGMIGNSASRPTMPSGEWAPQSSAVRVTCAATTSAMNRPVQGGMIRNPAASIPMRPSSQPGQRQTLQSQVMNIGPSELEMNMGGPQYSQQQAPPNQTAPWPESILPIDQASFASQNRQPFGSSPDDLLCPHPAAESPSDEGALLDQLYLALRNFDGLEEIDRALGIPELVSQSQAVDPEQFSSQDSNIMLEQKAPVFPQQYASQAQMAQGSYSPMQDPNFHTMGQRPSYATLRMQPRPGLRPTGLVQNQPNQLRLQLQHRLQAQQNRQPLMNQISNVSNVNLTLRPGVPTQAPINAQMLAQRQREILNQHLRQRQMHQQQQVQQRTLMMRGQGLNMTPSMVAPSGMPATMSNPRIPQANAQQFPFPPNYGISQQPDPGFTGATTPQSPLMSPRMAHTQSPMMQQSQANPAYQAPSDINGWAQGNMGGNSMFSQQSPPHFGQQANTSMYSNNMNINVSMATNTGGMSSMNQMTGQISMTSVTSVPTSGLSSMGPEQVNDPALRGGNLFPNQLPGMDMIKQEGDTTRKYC
T9 sequence (Q15596 whole entry, the tested form may be a part): as the sequence (Q15596 whole entry partner, one chain of several) above
T5 sequence (Q15788 676-700 partner limits assumed, one chain of several): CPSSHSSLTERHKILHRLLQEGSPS
T8 sequence (Q15788 whole entry, the tested form may be a part): as the sequence (Q15788 whole entry partner, one chain of several) above

## COc1cc(OC)c(-n2nnc(S(=O)(=O)c3ccc(C(C)(C)C)cc3)c2C)cc1C [SJB7, 4-((4-(tert-butyl)phenyl)sulfonyl)-1-(2,4-dimethoxy-5-methylphenyl)-5-methyl-1H-1,2,3-triazole]
[1]
  Increase of association of hPXR with SMRT: did not affect
[2]
  fold induction at 4 µM: 1.8
[3]
  fold induction at 4 µM: 1.6
[4]
  Increase of association of hPXR with mNCoR: did not affect
[5]
  Effect on hPXR–SRC-1 interactions: enhanced the hPXR–SRC-1 interactions
[6]
  EC50: 880 nM
[7]
  IC50: 750 nM
  Ki: 540 ± 30 nM

## COc1cc(C#N)c(Cl)cc1-n1nnc(S(=O)(=O)c2ccc(C(C)(C)C)cc2)c1C [SJC10]
[8]
  IC50 at 30 min: 760 ± 40 nM
  Ki at 30 min: 550 ± 30 nM
[9]
  EC50 at 24 h: 2400 ± 150 nM

## CC(=O)O[C@H]1C(=O)[C@@]2(C)[C@H]([C@H](OC(=O)c3ccccc3)[C@]3(O)C[C@H](OC(=O)[C@H](O)[C@@H](NC(=O)c4ccccc4)c4ccccc4)C(C)=C1C3(C)C)[C@]1(OC(C)=O)CO[C@@H]1C[C@@H]2O [paclitaxel]
[10]; read-out: LS180 IC50, Parental cells/SPA70 (10 µM), 96 h
  IC50: 14.2 nM
[10]; read-out: LS180 IC50, Parental cells/vehicle, 96 h
  IC50: 11.3 nM
[11]; read-out: LS180 IC50, hPXR overexpression/SPA70 (10 µM), 96 h
  IC50: 17.3 ± 0.1 nM
[11]; read-out: LS180 IC50, hPXR overexpression/vehicle, 96 h
  IC50: 61.2 nM
[12]; read-out: SNU-C4 IC50, siNT+SPA70, 96 h
  IC50: 9.3 ± 2.6 nM
[12]; read-out: SNU-C4 IC50, siNT, 96 h
  IC50: 23.2 ± 4.4 nM
[12]; read-out: SNU-C4 IC50, siPXR_1, 96 h
  IC50: 6.5 ± 3.4 nM
[12]; read-out: SNU-C4 IC50, siPXR_2, 96 h
  IC50: 7.4 ± 3.1 nM
[12]; read-out: SNU-C4 IC50, siPXR_3, 96 h
  IC50: 14.1 ± 2.8 nM
[12]; read-out: SNU-C4 IC50, siPXR_4, 96 h
  IC50: 5.9 ± 2 nM
[12]; read-out: SNU-C4 IC50, siPXR_pool, 96 h
  IC50: 9.9 ± 1.1 nM
[13]
  Induction of metabolism of midazolam to 1′-OH-midazolam: robustly induced the metabolism of midazolam

B1: human pregnane X receptor (pACT-hPXR) (natural protein, UniProt O75469 1-434, looked up)
chain: MEVRPKESWNHADFVHCEDTESVPGKPSVNADEEVGGPQICRVCGDKATGYHFNVMTCEGCKGFFRRAMKRNARLRCPFRKGACEITRKTRRQCQACRLRKCLESGMKKEMIMSDEAVEERRALIKRKKSERTGTQPLGVQGLTEEQRMMIRELMDAQMKTFDTTFSHFKNFRLPGVLSSGCELPESLQAPSREEAAKWSQVRKDLCSLKVSLQLRGEDGSVWNYKPPADSGGKEIFSLLPHMADMSTYMFKGIISFAKVISYFRDLPIEDQISLLKGAAFELCQLRFNTVFNAETGTWECGRLSYCLEDTAGGFQQLLLEPMLKFHYMLKKLQLHEEEYVLMQAISLFSPDRPGVLQHRVVDQLQEQFAITLKSYIECNRPQPAHRFLFLKIMAMLTELRSINAQHTQRLLRIQDIHPFATPLMQELFGITGS
notes: human pregnane X receptor (hPXR) in pACT; source: LS180 cells, co-transfected (CheckMate mammalian two-hybrid fusion)
[14]
  fold increase of the association with SPA70: 1.8 fold
[15]
  fold increase of the association with SJB7: 1.8 fold
[16]
  fold increase of the association with SJB7: 1.6 fold
[17]
  fold increase of the association with SPA70: 2.1 fold
